This is an account of results in patent publication US8455475B2 (Gruenenthal GmbH, priority 2009, dated 2013).

In experiment [1] the target is T1, human B1R (bradykinin receptor 1) (Homo sapiens, UniProt P46663).
T1 construct: expressed in transfected cells; host or cells: CHO K1 cells
T1 sequence (P46663 1-353): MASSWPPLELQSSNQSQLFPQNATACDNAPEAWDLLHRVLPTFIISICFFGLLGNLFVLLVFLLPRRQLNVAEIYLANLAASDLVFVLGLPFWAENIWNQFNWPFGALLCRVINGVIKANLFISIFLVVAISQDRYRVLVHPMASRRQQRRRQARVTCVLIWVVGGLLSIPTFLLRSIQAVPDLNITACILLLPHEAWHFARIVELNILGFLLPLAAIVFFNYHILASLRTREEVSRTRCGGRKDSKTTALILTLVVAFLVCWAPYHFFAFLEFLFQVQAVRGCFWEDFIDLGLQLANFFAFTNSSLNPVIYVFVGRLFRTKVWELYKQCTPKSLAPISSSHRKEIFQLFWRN
The experiment is described as follows: FLIPR Ca2+ assay (Fluo-4) on CHO K1 cells stably transfected with the human B1R gene (hB1R cells): % inhibition at 10 μM / IC50, agonist Lys-Des-Arg9-bradykinin. Conditions: CHO-K1, human B1R. In kind it is cell-based. An outline of the steps:
(§1)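 Antagonism is measured as the drop in peak Fluo-4 Ca2+ signal when the EC80 agonist follows 10–20 min compound exposure. The single-point screen uses 10 μM; IC50 uses several concentrations. Values are given as % of maximal achievable inhibition.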

Experiment [2] concerns the target T2, rat B1R (bradykinin receptor 1) (Rattus norvegicus, UniProt P97583).
T2 construct: expressed in transfected cells; host or cells: CHO K1 cells
T2 sequence (P97583 1-337): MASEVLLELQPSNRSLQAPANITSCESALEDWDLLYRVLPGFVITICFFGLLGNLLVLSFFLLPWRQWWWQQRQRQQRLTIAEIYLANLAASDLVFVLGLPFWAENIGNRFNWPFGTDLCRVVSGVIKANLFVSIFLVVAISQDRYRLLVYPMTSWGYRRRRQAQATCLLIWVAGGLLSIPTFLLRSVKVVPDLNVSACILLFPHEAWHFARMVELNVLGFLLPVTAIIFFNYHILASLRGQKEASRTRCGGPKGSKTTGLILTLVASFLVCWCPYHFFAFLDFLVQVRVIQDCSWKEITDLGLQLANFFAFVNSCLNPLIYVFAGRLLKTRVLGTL
Nature of the experiment: FLIPR Ca2+ assay (Fluo-4) on CHO K1 cells stably transfected with the B1R gene of the rat (rB1R cells): % inhibition at 10 μM / IC50, agonist Des-Arg9-bradykinin. In kind it is cell-based. To be noted: CHO-K1, rat B1R. A digest of the protocol:
as §1

In the case of `O=C(c1ccc2c(c1)C(N(C(=O)c1ccccc1Cl)C1CC1)CC2)N1CCC2(CC1)CCN(c1ccncc1)CC2` (stereo not drawn) [Ind_CC-113, 2-chloro-N-cyclopropyl-N-[6-(9-pyridin-4-yl-3,9-diazaspiro[5.5]undecane-3-carbonyl)-2,3-dihydro-1H-inden-1-yl]-benzamide], the results for the inhibition at 10 µM in experiment [1] and in experiment [2] were 98% and 100%, respectively.
The like results for `O=C(N[C@@H]1CCc2cc(F)c(C(=O)N3CCC4(CC3)CCN(c3ccncc3)CC4)cc21)c1ccccc1Cl` [Example H-90, 2-Chloro-N-[(1R)-5-fluoro-6-(9-pyridin-4-yl-3,9-diazaspiro[5.5]undecane-3-carbonyl)-2,3-dihydro-1H-inden-1-yl]-benzamide] were, in that order, 100% and 103%.
Take `CN(C)C1(c2ccc(F)cc2)CCC2(CCN(C(=O)c3ccc4c(c3)C(N(C(=O)c3ccccc3Cl)C3CC3)CC4)CC2)CC1` (stereo not drawn) [Ind_CC-117, 2-chloro-N-cyclopropyl-N-[6-[9-dimethylamino-9-(4-fluorophenyl)-3-azaspiro[5.5]undecane-3-carbonyl]-2,3-dihydro-1H-inden-1-yl]-benzamide]: the inhibition at 10 µM in experiment [1] amounted to 56%; in experiment [2], 77%.
Consider `O=C(c1ccc2c(c1)C(NS(=O)(=O)CCc1ccccc1Cl)CC2)N1CCC2(CC1)CCN(c1ccncc1)CC2` (stereo not drawn) [IND_CC-241, 2-(2-Chlorophenyl)-N-[6-(9-pyridin-4-yl-3,9-diazaspiro[5.5]undecane-3-carbonyl)-2,3-dihydro-1H-inden-1-yl]-ethanesulfonic acid amide], for which the inhibition at 10 µM in experiment [1] is 95%; in experiment [2], 101%.
Take `O=C(NC1CCc2ccc(C(=O)N3CCC4(CC3)CCN(c3ccncc3)C4)cc21)c1cc(C(F)(F)F)ccc1Cl` (stereo not drawn) [IND_CC-218, 2-Chloro-N-[6-(2-pyridin-4-yl-2,8-diazaspiro[4.5]decane-8-carbonyl)-2,3-dihydro-1H-inden-1-yl]-5-(trifluoromethyl)-benzamide]: the results for the inhibition at 10 µM in experiment [1] and in experiment [2] were 94% and 103%, respectively.
For `CN(C(=O)c1ccc(Cl)cc1Cl)C1CCc2ccc(C(=O)N3CCC4(CC3)CCN(c3ccncc3)CC4)cc21` (stereo not drawn) [Ind_CC-018, 2,4-dichloro-N-methyl-N-[6-(9-pyridin-4-yl-3,9-diazaspiro[5.5]undecane-3-carbonyl)-2,3-dihydro-1H-inden-1-yl]-benzamide], in that order: 98% and 98%.
Turning to `O=C(c1ccc2c(c1)[C@H](NC(=O)C1(c3ccccc3Cl)CC1)CC2)N1CCC2(CCN(c3ccncc3)CC2)C1` [Example H-148, 1-(2-Chlorophenyl)-N-[(1R)-6-(8-pyridin-4-yl-3,8-diazaspiro[4.5]decane-3-carbonyl)-2,3-dihydro-1H-inden-1-yl]-cyclopropane-1-carboxylic acid amide], the figures for the inhibition at 10 µM in experiment [1] and in experiment [2] were 100% and 101%, respectively.
Regarding `COc1cc(C)c(C(=O)NC2CCc3ccc(C(=O)N4CCC5(CC4)CCC(c4ccc(F)cc4)(N(C)C)CC5)cc32)c(C)c1` (stereo not drawn) [Ind_CC-093, N-[6-[9-dimethylamino-9-(4-fluorophenyl)-3-azaspiro[5.5]undecane-3-carbonyl]-2,3-dihydro-1H-inden-1-yl]-4-methoxy-2,6-dimethyl-benzamide], the inhibition at 10 µM was determined as 34% in experiment [1] and 74% in experiment [2].
The like results for `O=C(NC1CCc2ccc(C(=O)N3CCC4(CC3)CCN(c3ccncc3)CC4)cc21)c1c(Cl)cccc1C(F)(F)F` (stereo not drawn) [IND_CC-204, 2-Chloro-N-[6-(9-pyridin-4-yl-3,9-diazaspiro[5.5]undecane-3-carbonyl)-2,3-dihydro-1H-inden-1-yl]-6-(trifluoromethyl)-benzamide] were, in that order, 99% and 102%.
Regarding `O=C(c1ccc2c(c1)[C@H](N(CC(F)(F)F)C(=O)c1ccccc1Cl)CC2)N1CCC2(CCN(c3ccncc3)CC2)C1` [Example H-137, 2-Chloro-N-[(1R)-6-(8-pyridin-4-yl-3,8-diazaspiro[4.5]decane-3-carbonyl)-2,3-dihydro-1H-inden-1-yl]-N-(2,2,2-trifluoro-ethyl)-benzamide], the inhibition at 10 µM in experiment [1] was determined as 99%; in experiment [2], 103%.
Turning to `O=C(NC1CCc2ccc(C(=O)N3CCC4(CCN(c5ccncc5)CC4)C3)cc21)c1ccccn1` (stereo not drawn) [Ind_CC-084, N-[6-(8-pyridin-4-yl-3,8-diazaspiro[4.5]decane-3-carbonyl)-2,3-dihydro-1H-inden-1-yl]-pyridine-2-carboxylic acid amide], the inhibition at 10 µM came to 99% in experiment [1] and 100% in experiment [2].
Take `O=C(NC1CCc2ccc(C(=O)N3CCC4(CCN(c5ccncc5)CC4)C3)cc21)c1cc(C(F)(F)F)ccc1Cl` (stereo not drawn) [IND_CC-251, 2-Chloro-N-[6-(8-pyridin-4-yl-2,8-diazaspiro[4.5]decane-2-carbonyl)-2,3-dihydro-1H-inden-1-yl]-5-(trifluoromethyl)-benzamide]: the figures for the inhibition at 10 µM in experiment [1] and in experiment [2] were 100% and 99%, respectively.
Take `O=C(c1ccc2c(c1)[C@H](NS(=O)(=O)c1ccccc1Cl)CC2)N1CCC2(CCN(c3ccncc3)CC2)C1` [Example H-105, 2-Chloro-N-[(1R)-6-(8-pyridin-4-y-3,8-diazaspiro[4.5]decane-3-carbonyl)-2,3-dihydro-1H-inden-1-yl]-benzenesulfonic acid amide]: the values for the inhibition at 10 µM in experiment [1] and in experiment [2] were 100% and 107%, respectively.
For `O=C(NC1CCc2ccc(C(=O)N3CCC4(CCN(Cc5ccc6nccnc6c5)CC4)C3)cc21)c1ccccc1Cl` (stereo not drawn) [IND_CC-568, 2-Chloro-N-[6-[8-(quinoxalin-6-yl-methyl)-2,8-diazaspiro[4.5]decane-2-carbonyl]-2,3-dihydro-1H-inden-1-yl]-benzamide], the results for the inhibition at 10 µM in experiment [1] and in experiment [2] were 20% and 105%, respectively.
In the case of `O=C(NC1CCc2ccc(C(=O)N3CCC4(CCN(c5ccncc5)CC4)C3)cc21)c1cccc(Cl)c1Cl` (stereo not drawn) [IND_CC-284, 2,3-Dichloro-N-[6-(8-pyridin-4-yl-2,8-diazaspiro[4.5]decane-2-carbonyl)-2,3-dihydro-1H-inden-1-yl]-benzamide], the inhibition at 10 µM in experiment [1] was determined as 100%; in experiment [2], 107%.
Turning to `Cc1ccccc1C(=O)N[C@@H]1CCc2ccc(C(=O)N3CCC4(CCN(c5ccncc5)CC4)C3)cc21` [Example H-53, 2-Methyl-N-[(1R)-6-(8-pyridin-4-yl-3,8-diazaspiro[4.5]decane-3-carobnyl)-2,3-dihydro-1H-inden-1-yl]-benzamide], the inhibition at 10 µM in experiment [1] was 100%; in experiment [2] it was 104%.
In the case of `O=C(N[C@@H]1CCOc2c(F)cc(C(=O)N3CCC4(CCN(c5ccncc5)CC4)C3)cc21)c1ccccc1Cl` [Example H-73, 2-Chloro-N-[(4R)-8-fluoro-6-(8-pyridin-4-yl-3,8-diazaspiro[4.5]decane-3-carbonyl)-3,4-dihydro-2H-chromen-4-yl]-benzamide], the inhibition at 10 µM in experiment [1] worked out at 100%; in experiment [2], 103%.
With `CC1(C)Cc2ccc(C(=O)N3CCC4(CC3)CCN(c3ccncc3)CC4)cc2C1NC(=O)c1ccc(F)cc1Cl` (stereo not drawn) [IND_CC-275, 2-Chloro-N-[2,2-dimethyl-6-(9-pyridin-4-yl-3,9-diazaspiro[5.5]undecane-3-carbonyl)-1,3-dihydro-inden-1-yl]-4-fluoro-benzamide], the inhibition at 10 µM is 100% in experiment [1] and 107% in experiment [2].
